Results published in ChEMBL document CHEMBL1201862, “PubChem BioAssay data set” (2004).
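Values below derive from 48-hour exposures of cells grown in 96-well plates, with endpoints linearly interpolated between the two concentrations bracketing the appropriate inhibition level. GI50: concentration for 50% inhibition of growth.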 Active and inactive are the calls of the source. Cut-off read from the data, not from the text of the source: active = GI50 up to about 1.1 µM and inactive = higher. Square brackets hold non-standard residues; d marks the D form. Peptide text beside a SMILES is read from it. * marks the point of attachment. ξ: configuration not given here. ξW = NC(Cc1c[nH]c2ccccc12)C(=O)O; X29 = O=C(O)[C@H]1CCC[C@H]1N*; ξF = NC(Cc1ccccc1)C(=O)O; Boc = CC(C)(C)OC(=O)*; ξK = NCCCCC(N)C(=O)O; ξT = CC(O)C(N)C(=O)O; tBu = CC(C)(C)*

Assays:
Assay in all cases: NCI anticancer screen, dose series, 48 h
UACC-62 = tested on: UACC-62
SF-268 = tested on: SF-268
NCI-H460 = tested on: NCI-H460
SK-OV-3 = tested on: SK-OV-3
COLO 205 = tested on: COLO 205
SR = tested on: SR
NCI-H226 = tested on: NCI-H226
Malme-3M = tested on: Malme-3M
SF-539 = tested on: SF-539
OVCAR-8 = tested on: OVCAR-8
OVCAR-4 = tested on: OVCAR-4
A549 = tested on: A549
ACHN = tested on: ACHN
Hs-578T = tested on: Hs-578T
RXF 393 = tested on: RXF 393
PC-3 = tested on: PC-3
U-251 = tested on: U-251
DU-145 = tested on: DU-145
HT-29 = tested on: HT-29
HCC 2998 = tested on: HCC 2998

Measured: GI50

CC1(C)C(CBr)=[N+]([O-])C(C)(C)N1O
inactive: UACC-62 7.59 µM | SF-268 9.71 µM | NCI-H460 > 10 µM | SK-OV-3 > 10 µM | COLO 205 1.83 µM | SR > 3.74 µM | NCI-H226 > 10 µM | Malme-3M 2.49 µM | SF-539 > 5.38 µM | OVCAR-8 > 6.97 µM | OVCAR-4 1.77 µM | A549 > 10 µM | ACHN 3.68 µM | Hs-578T > 10 µM | RXF 393 3.31 µM | PC-3 > 10 µM | U-251 > 10 µM | DU-145 > 10 µM | HT-29 > 8.75 µM | HCC 2998 > 10 µM

CC(OC(C)(C)C)C(NC(=O)C(CCCCNC(=O)OC(C)(C)C)NC(=O)C(Cc1c[nH]c2ccccc12)NC(=O)C(N)Cc1ccccc1)C(=O)NC(Cc1ccccc1)C(=O)N[C@@H]1CCC[C@@H]1C(=O)O (stereo not given in full) (H-[ξF][ξW][ξK](Boc)[ξT](tBu)[ξF]-X29)
inactive: UACC-62 33.4 µM | SF-268 44.8 µM | NCI-H460 > 100 µM | SK-OV-3 38.8 µM | COLO 205 27.4 µM | SR 35.5 µM | NCI-H226 28.5 µM | Malme-3M 40 µM | SF-539 19.4 µM | OVCAR-8 > 100 µM | OVCAR-4 71.4 µM | A549 > 100 µM | ACHN > 100 µM | Hs-578T 19.9 µM | RXF 393 > 100 µM | PC-3 45.6 µM | U-251 24.3 µM | DU-145 46.2 µM | HT-29 29.6 µM | HCC 2998 19.7 µM
